A short description of this test: Inhibition of Trypanosoma cruzi squalene synthase.

For the compound `CC(C)=CCC/C(C)=C/CNCCNC1C2CC3CC(C2)CC1C3` (stereo unspecified) [SQ109], the affinity corresponds to a Ki of 1200 nM.

For orientation: Ki means a measure of affinity in units of concentration, obtained from inhibition or displacement. A high value points to lower affinity.

(Values after ChEMBL document CHEMBL2057164, “Head-to-head prenyl tranferases: anti-infective drug targets” (J Med Chem, 2012).)
